# Laboratory results: PMC11257039, “VCP activator reverses nuclear proteostasis defects and enhances TDP-43 aggregate clearance in multisystem proteinopathy models” (The Journal of Clinical Investigation, 2024)
# Values joined by “and” are separate entries in the source; they are usually repeats but may differ in a detail not shown here. Identical values can stand only once.
# Legend:
# recombinant WT VCP [1] = target: T1, recombinant WT VCP (Mus musculus, UniProt Q01853); assay: Kinase-Glo ATPase assay, recombinant WT VCP; type: biochemical; settings: for ATP consumed: WT VCP no UN
# T1 construct: in the full-length recombinant VCP; His (N); made in house; host or cells: Escherichia coli BL21-CodonPlus (DE3)-RIL
# T1 sequence (Q01853 whole entry): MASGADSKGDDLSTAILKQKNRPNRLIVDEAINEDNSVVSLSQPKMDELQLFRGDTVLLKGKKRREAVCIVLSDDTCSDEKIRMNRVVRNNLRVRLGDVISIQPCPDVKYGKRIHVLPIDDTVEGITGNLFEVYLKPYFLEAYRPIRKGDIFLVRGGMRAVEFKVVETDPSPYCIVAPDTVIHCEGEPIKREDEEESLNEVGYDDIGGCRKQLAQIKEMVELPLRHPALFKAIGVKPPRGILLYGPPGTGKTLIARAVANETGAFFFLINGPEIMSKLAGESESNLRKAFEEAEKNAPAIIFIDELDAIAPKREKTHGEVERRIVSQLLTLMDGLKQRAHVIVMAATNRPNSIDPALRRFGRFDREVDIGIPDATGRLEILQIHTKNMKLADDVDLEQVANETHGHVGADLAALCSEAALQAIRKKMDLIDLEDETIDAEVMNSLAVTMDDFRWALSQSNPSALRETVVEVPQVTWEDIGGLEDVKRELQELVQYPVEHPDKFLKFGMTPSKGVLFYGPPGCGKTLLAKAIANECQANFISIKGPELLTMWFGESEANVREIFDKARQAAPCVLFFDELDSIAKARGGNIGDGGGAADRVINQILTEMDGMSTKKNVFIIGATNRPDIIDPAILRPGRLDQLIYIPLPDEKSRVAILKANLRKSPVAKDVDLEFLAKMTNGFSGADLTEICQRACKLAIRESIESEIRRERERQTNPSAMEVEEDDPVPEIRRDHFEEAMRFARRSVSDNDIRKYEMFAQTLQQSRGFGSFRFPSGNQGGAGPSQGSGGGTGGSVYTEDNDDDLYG
# Experimental: (§1) Experiments with varied activator concentration and screening were measured using the Kinase-Glo Luminescent Kinase Assay (Promega). Reactions were incubated at 25°C for 1 hour then reduced to 4°C in a thermocycler consisting of 50 nM of recombinant VCP with or without 50 nM UFD1/NPLOC4 in 50 uL ATPase buffer (25 mM HEPES, pH 7.5, 100 mM NaCl, 10 mM MgCl2) at 2% DMSO with 62.5 μM ATP and a range of activator concentrations (Gibco, Sigma-Aldrich). Equal volumes of reaction and Kinase-Glo reagent were incubated for 20 minutes at room temperature in a 96 well white flat bottom plate (Corning). Luminescence was measured in a microplate reader (Spark 20M, Tecan).
# (§2) Experiments with varied compound concentration were fit to a 3-parameter dose curve with asymmetric profile likelihood 95% confidence intervals in GraphPad Prism 9 (GraphPad). Experiments with varied ATP concentration were fit to a Michaelis-Menten model with asymmetric profile likelihood 95% confidence intervals. Significance was determined for experiments with fixed compound or fixed ATP concentration using a linear mixed-effects model.
# R155H VCP = target: T2, R155H VCP (Mus musculus, UniProt Q01853, R155H); assay: MESG-PNP ATPase assay, recombinant R155H VCP; type: biochemical; settings: VCP Mutation R155H; replicate values
# T2 construct: in the full-length recombinant VCP; His (N); made in house; host or cells: Escherichia coli BL21-CodonPlus (DE3)-RIL
# T2 sequence (Q01853 whole entry R155H): as the sequence (Q01853 whole entry) above, with R155H counted along it
# Experimental: (§3) All other experiments were performed using the EnzCheck phosphatase assay kit (Molecular Probes). ATPase activity was measured in a 96-well flat bottom plate (Thermo Fisher Scientific). 50 nM VCP was incubated in 100 μL ATPase buffer with 2% DMSO with 25 μM compound and various ATP concentrations. The absorbance at 360 ± 5 nm was measured for more than 15 minutes at 25°C. Phosphate release was quantified based on a phosphate standard curve performed on the same plate. Initial enzyme velocity was determined by fitting the linear portion of the data to a linear regression model.
# (§4) Figure S8. VCP activators variable effect on ATPase activity of MSP associated mutations in recombinant VCP. ATPase activity of 50 nM recombinant VCP protein was measured using an MESG-PNP assay upon treatment with 25 μM compound versus 2% DMSO control at 1mM ATP for WT (also shown in Fig. 5c), A232E, R155H, and R159H (n=3 with 3 technical replicated per experiment; points are expressed as beta ± SE, linear effects model: *P<0.05,**P<0.01; ***P<0.001; ****P<0.0001).
# 26S proteasome = 26S proteasome activity, Suc-LLVY-AMC fluorescence; type: biochemical, human; settings: 25 μM compound, versus 1% DMSO
# Experimental: 26S proteasome and substrate suc-LLVY-AMC were purchased (LifeSensors, Inc.). Fluorescence was measured in a microplate reader using a 96-well optical bottom black plate (Thermo Fisher Scientific). […] 26S proteasome was incubated in 100 μL proteasome buffer (20 mM HEPES, pH 7.5, 0.5 mM EDTA, 0.05% Triton-X) with 100 μM suc-LLVY-AMC, 1 mM ATP, and 25 μM compound or 1% DMSO. Fluorescence was measured at excitation 380 ± 10nm and emission 460 ± 10nm for more than 15 minutes at 37°C. Initial velocity was determined by fitting the linear portion of the data to a linear regression model. Significance was determined for using a linear mixed-effects model.
# [2] = system: WT HeLa cells expressing GFP-TDP-4FL; assay: Flow cytometry of GFP-TDP-4FL integrated fluorescence, WT HeLa; type: cell-based; settings: for Integrated Fluorescence WT (Normalized to CHX): 4 μM MG132 17 h
# Experimental: Drug treatments were performed on neurons 7 days after lentiviral transduction and 14 days after neuronal induction. HeLa cells were collected using trypsin and pelleted at 1000g for 3 minutes. Cell pellets were resuspended in colorless DMEM (Invitrogen) supplemented with 2% FBS and filtered through a BD tube with cell strainer (BD Biosciences) for flow cytometry analysis on LSR II (BD Biosciences). Data analysis was performed on FlowJo v10 software. Integrated fluorescence intensity was determined by multiplying percent positive GFP and GFP median fluorescence values.
# A232E VCP = target: T3, A232E VCP (Mus musculus, UniProt Q01853, A232E); assay: MESG-PNP ATPase assay, recombinant A232E VCP; type: biochemical; settings: VCP Mutation A232E; replicate values
# T3 construct: in the full-length recombinant VCP; His (N); made in house; host or cells: Escherichia coli BL21-CodonPlus (DE3)-RIL
# T3 sequence (Q01853 whole entry A232E): as the sequence (Q01853 whole entry) above, with A232E counted along it
# Experimental: as §3, §4
# R159H VCP = target: T4, R159H VCP (Mus musculus, UniProt Q01853, R159H); assay: MESG-PNP ATPase assay, recombinant R159H VCP; type: biochemical; settings: VCP Mutation R159H; replicate values
# T4 construct: in the full-length recombinant VCP; His (N); made in house; host or cells: Escherichia coli BL21-CodonPlus (DE3)-RIL
# T4 sequence (Q01853 whole entry R159H): as the sequence (Q01853 whole entry) above, with R159H counted along it
# Experimental: as §3, §4
# luciferase = assay: Luciferase counter assay: Kinase-Glo with 62.5 μM ATP without recombinant VCP; type: biochemical; settings: for measured ATP consumed (nmol) without VCP: replicate values
# Experimental: as §1
# (A-D) Measured ATP as determined by a Kinase-Glo assay of 62.5μM ATP in the presence of increasing concentrations of compound without recombinant VCP present. (for all panels: n=3 with 4 technical replicates per experiment, points are expressed as beta ± SE, linear mixed effects model, P>0.05 for each […]
# (1 picture or pasted object on this page, not shown here)
# WT VCP + Ufd1/Nploc4 = target: T5, WT VCP + Ufd1/Nploc4 (Mus musculus, UniProt Q01853); assay: Kinase-Glo ATPase assay, WT VCP with UFD1/NPLOC4 (UN); type: biochemical; settings: for ATP consumed: WT VCP with UN
# T5 construct: in the full-length recombinant VCP; His (N); made in house; host or cells: E. coli (VCP: BL21-CodonPlus (DE3)-RIL; UFD1 and NPLOC4: E. coli (DE3), purified by the MD Anderson core)
# T5 sequence (Q01853 whole entry): as the sequence (Q01853 whole entry) above
# T5 sequence (Q92890 whole entry partner): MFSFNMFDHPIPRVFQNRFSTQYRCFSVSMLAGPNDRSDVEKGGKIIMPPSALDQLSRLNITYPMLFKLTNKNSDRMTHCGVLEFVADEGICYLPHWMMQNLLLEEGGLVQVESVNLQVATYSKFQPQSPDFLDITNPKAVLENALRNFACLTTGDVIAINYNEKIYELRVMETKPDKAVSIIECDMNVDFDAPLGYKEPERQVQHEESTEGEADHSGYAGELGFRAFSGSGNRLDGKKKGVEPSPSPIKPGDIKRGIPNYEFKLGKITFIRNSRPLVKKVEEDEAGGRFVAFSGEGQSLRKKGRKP
# T5 sequence (Q8TAT6 whole entry partner): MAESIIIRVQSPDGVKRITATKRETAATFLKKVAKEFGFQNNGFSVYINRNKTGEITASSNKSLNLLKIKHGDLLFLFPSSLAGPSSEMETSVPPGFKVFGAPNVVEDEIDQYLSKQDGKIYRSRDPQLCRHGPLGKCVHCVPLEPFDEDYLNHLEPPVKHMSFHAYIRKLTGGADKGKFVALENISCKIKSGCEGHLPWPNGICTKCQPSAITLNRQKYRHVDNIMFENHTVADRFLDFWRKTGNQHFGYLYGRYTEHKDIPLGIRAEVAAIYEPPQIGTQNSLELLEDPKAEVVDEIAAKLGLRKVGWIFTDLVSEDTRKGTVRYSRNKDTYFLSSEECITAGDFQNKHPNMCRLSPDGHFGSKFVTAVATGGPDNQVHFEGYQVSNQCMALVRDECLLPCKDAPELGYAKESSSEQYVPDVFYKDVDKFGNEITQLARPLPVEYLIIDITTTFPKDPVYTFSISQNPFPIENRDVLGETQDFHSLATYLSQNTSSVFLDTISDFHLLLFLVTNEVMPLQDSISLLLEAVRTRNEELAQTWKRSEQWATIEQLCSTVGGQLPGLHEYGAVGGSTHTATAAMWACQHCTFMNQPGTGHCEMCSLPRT
# Experimental: as §1, §2
# recombinant WT VCP [3] = target: T1, recombinant WT VCP; assay: MESG-PNP (EnzCheck) phosphate release ATPase assay, WT VCP; type: biochemical; settings: for ATPase activity v0/ET: 25 μM compound, replicate experiments
# Experimental: as §3, §2
structure (smiles),measurement,setting,value
O=C(CSc1nc2ccccc2c(=O)n1NC(=O)c1ccccc1)c1ccc(Cl)cc1 [UP12],EC50,"recombinant WT VCP [1]; EC50 (μM) (95% CI), WT VCP without UN, 50 nM VCP, 62.5 μM ATP, 2% DMSO",1.57 µM
same,ATP consumed,recombinant WT VCP [1]; 0.20 μM compound,0.972 nmol and 0.921 nmol and 1.113 nmol
same,ATP consumed,recombinant WT VCP [1]; 0.39 μM compound,1.046 nmol and 0.999 nmol and 1.126 nmol
same,ATP consumed,recombinant WT VCP [1]; 0.78 μM compound,1.028 nmol and 1.027 nmol and 1.185 nmol
same,ATP consumed,recombinant WT VCP [1]; 1.56 μM compound,1.050 nmol and 1.001 nmol and 1.186 nmol
same,ATP consumed,recombinant WT VCP [1]; 3.13 μM compound,0.987 nmol and 1.173 nmol and 1.366 nmol
same,ATP consumed,recombinant WT VCP [1]; 6.25 μM compound,1.164 nmol and 1.158 nmol and 1.362 nmol
same,ATP consumed,recombinant WT VCP [1]; 12.5 μM compound,1.242 nmol and 1.397 nmol and 1.210 nmol
same,ATP consumed,recombinant WT VCP [1]; 25 μM compound,1.202 nmol and 1.262 nmol and 1.324 nmol
same,recombinant WT VCP ATPase activity,recombinant WT VCP [1]; in vitro validation of 106 screen hits,significantly increased
same,increase of VCP activity,"recombinant WT VCP [1]; maximum, WT VCP without UN",39%
same,"ATPase activity, nmol Pi / nmol VCP / s",R155H VCP,0.592 nmol Pi / nmol VCP / s and 0.458 nmol Pi / nmol VCP / s and 0.468 nmol Pi / nmol VCP / s
same,% activity of 26S proteasome,26S proteasome,94.3% and 79.8% and 83.9% and 107.1% and 92.8% and 109.7%
same,Integrated Fluorescence WT (Normalized to CHX),[2]; then CHX with 5 μM compound 4 h,0.972 and 1.128 and 1.069 and 1.136 and 1.032 and 0.941
same,Integrated Fluorescence WT (Normalized to CHX),[2]; then CHX with 20 μM compound 4 h,0.894 and 0.971 and 1.353 and 0.977 and 0.848 and 0.689
same,clearance of GFP-TDP-4FL aggregates (integrated fluorescence),"[2]; MG132, then CHX with 5 or 20 μM activator",did not have a significant effect
same,"ATPase activity, nmol Pi / nmol VCP / s",A232E VCP,1.130 nmol Pi / nmol VCP / s and 0.838 nmol Pi / nmol VCP / s and 0.963 nmol Pi / nmol VCP / s
same,"ATPase activity, nmol Pi / nmol VCP / s",R159H VCP,0.579 nmol Pi / nmol VCP / s and 0.685 nmol Pi / nmol VCP / s and 0.536 nmol Pi / nmol VCP / s
same,luciferase activity (measured ATP without VCP),"luciferase; 62.5 μM ATP, increasing concentrations of compound",did not inhibit luciferase activity
same,measured ATP consumed (nmol) without VCP,luciferase; compound 6.25 μM,3.153 nmol and 3.247 nmol and 3.452 nmol and 3.556 nmol and 3.276 nmol and 3.463 nmol and 3.531 nmol and 3.381 nmol and 3.251 nmol and 3.386 nmol and 3.279 nmol and 3.064 nmol
same,measured ATP consumed (nmol) without VCP,luciferase; compound 12.5 μM,3.163 nmol and 3.366 nmol and 3.532 nmol and 3.606 nmol and 3.351 nmol and 3.662 nmol and 3.334 nmol and 3.435 nmol and 3.323 nmol and 3.733 nmol and 3.427 nmol and 3.076 nmol
same,measured ATP consumed (nmol) without VCP,luciferase; compound 25 μM,3.243 nmol and 3.452 nmol and 3.683 nmol and 3.709 nmol and 3.371 nmol and 3.627 nmol and 3.582 nmol and 3.248 nmol and 3.318 nmol and 3.356 nmol and 3.238 nmol and 3.225 nmol
same,measured ATP consumed (nmol) without VCP,luciferase; compound 50 μM,3.199 nmol and 3.663 nmol and 3.673 nmol and 3.419 nmol and 3.053 nmol and 3.725 nmol and 3.509 nmol and 3.086 nmol and 3.588 nmol and 3.442 nmol and 3.634 nmol and 3.113 nmol
same,measured ATP consumed (nmol) without VCP,luciferase; compound 100 μM,3.128 nmol and 3.612 nmol and 3.580 nmol and 3.474 nmol and 3.673 nmol and 3.565 nmol and 3.583 nmol and 2.931 nmol and 3.556 nmol and 3.479 nmol and 3.581 nmol and 3.246 nmol
same,change in EC50 with UN compared to without UN,WT VCP + Ufd1/Nploc4,non-significant decreases
same,change in maximum percent activity with UN compared to without UN,WT VCP + Ufd1/Nploc4,significantly decreased
same,EC50,"WT VCP + Ufd1/Nploc4; WT VCP + Ufd1/Nploc4, 1:1 molar ratio",648 nM
same,ATP consumed,WT VCP + Ufd1/Nploc4; 0.20 μM compound,1.300 nmol and 1.366 nmol and 1.077 nmol
same,ATP consumed,WT VCP + Ufd1/Nploc4; 0.39 μM compound,1.441 nmol and 1.399 nmol and 1.156 nmol
same,ATP consumed,WT VCP + Ufd1/Nploc4; 0.78 μM compound,1.422 nmol and 1.447 nmol and 1.306 nmol
same,ATP consumed,WT VCP + Ufd1/Nploc4; 1.56 μM compound,1.523 nmol and 1.537 nmol and 1.366 nmol
same,ATP consumed,WT VCP + Ufd1/Nploc4; 3.13 μM compound,1.496 nmol and 1.548 nmol and 1.334 nmol
same,ATP consumed,WT VCP + Ufd1/Nploc4; 6.25 μM compound,1.632 nmol and 1.536 nmol and 1.400 nmol
same,ATP consumed,WT VCP + Ufd1/Nploc4; 12.5 μM compound,1.663 nmol and 1.623 nmol and 1.427 nmol
same,ATP consumed,WT VCP + Ufd1/Nploc4; 25 μM compound,1.544 nmol and 1.491 nmol and 1.364 nmol
same,kcat (nmol Pi / nmol VCP / s) (95% CI),recombinant WT VCP [3]; 25 μM activator,"0.309 (0.269, 0.356) nmol Pi / nmol VCP / s"
same,increase in kcat,"recombinant WT VCP [3]; 25 μM activator, versus DMSO",about 25%
same,ATPase activity v0/ET,recombinant WT VCP [3]; [ATP] 62.5 μM,0.164 nmol Pi / nmol VCP / s and 0.127 nmol Pi / nmol VCP / s and 0.154 nmol Pi / nmol VCP / s
same,ATPase activity v0/ET,recombinant WT VCP [3]; [ATP] 125 μM,0.234 nmol Pi / nmol VCP / s and 0.182 nmol Pi / nmol VCP / s and 0.208 nmol Pi / nmol VCP / s
same,ATPase activity v0/ET,recombinant WT VCP [3]; [ATP] 250 μM,0.282 nmol Pi / nmol VCP / s and 0.230 nmol Pi / nmol VCP / s and 0.291 nmol Pi / nmol VCP / s
same,ATPase activity v0/ET,recombinant WT VCP [3]; [ATP] 500 μM,0.289 nmol Pi / nmol VCP / s and 0.232 nmol Pi / nmol VCP / s and 0.265 nmol Pi / nmol VCP / s
same,ATPase activity v0/ET,recombinant WT VCP [3]; [ATP] 1000 μM,0.320 nmol Pi / nmol VCP / s and 0.260 nmol Pi / nmol VCP / s and 0.293 nmol Pi / nmol VCP / s
